Reference: US8796457B2, “Compound useful for the treatment of degenerative and inflammatory diseases” (Galapagos NV, priority 2009, dated 2014)
Read-outs that look alike come from different tables or passages of the source.

How the values were obtained:
JAK1 = JAK1 (Homo sapiens (Human), UniProt P23458); test: JAK1 Ki determination assay (polyGT, 33P filter plate); type: biochemical; conditions: Lineweaver-Burk; polyGT substrate, 33P readout
Experimental: For the determination of Ki, different amounts of inhibitor were mixed with the enzyme and the enzymatic reaction was followed as a function of ATP concentration. The Ki was determined by means of double reciprocal plotting of Km vs compound concentration (Lineweaver-Burk plot). JAK1 (Invitrogen, PV4774) was used at a final concentration of 500 ng/ml. […] Measurement of incorporated phosphate into the substrate polyGT was done by loading the samples on a filter plate (using a harvester, Perkin Elmer) and subsequent washing. Incorporated ^33P in polyGT is measured in a Topcount scintillation counter after addition of scintillation liquid to the filter plates (Perkin Elmer).

[1] = biological target: Recombinant human JAK2 (catalytic domain) (Homo sapiens (Human), UniProt O60674); test: JAK2 inhibition assay; type: biochemical; conditions: average ± standard error of the mean; 7.5 μM ATP
Chain of Recombinant human JAK2 (catalytic domain) (O60674 849-1124): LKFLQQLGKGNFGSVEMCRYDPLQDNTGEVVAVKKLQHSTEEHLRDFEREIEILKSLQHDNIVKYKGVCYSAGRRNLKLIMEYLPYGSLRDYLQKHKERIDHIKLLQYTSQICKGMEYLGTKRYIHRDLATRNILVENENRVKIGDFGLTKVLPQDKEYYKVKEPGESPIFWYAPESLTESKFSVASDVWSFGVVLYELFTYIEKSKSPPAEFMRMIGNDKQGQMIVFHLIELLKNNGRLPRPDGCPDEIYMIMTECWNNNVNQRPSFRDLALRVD
Experimental: Recombinant human JAK2 (catalytic domain, amino acids 866-1154; catalog number PV4210) was purchased from Invitrogen. 0.0125 mU of JAK2 was incubated with 25 nM Ulight-JAK1(tyr1023) peptide (Perkin Elmer catalog number TRF0121) in kinase reaction buffer (41.66 mM HEPES pH7.0, 0.016% Triton X-100, 12.5 mM MgCl2, 3.33 mM DTT, 7.5 μM ATP) with or without 4 μL containing test compound or vehicle (DMSO, 1% final concentration), in a total volume of 20 μL, in a white 384 Luminotrac 200 plate (Greiner, catalog number 781075). […] Readout is performed using the Envision with excitation at 320nm and measuring emission at 615 nm (Perkin Elmer). Kinase activity was calculated by subtracting relative fluorescence units (RFU) obtained in the presence of a positive control inhibitor (10 μM staurosporine) from RFU obtained in the presence of vehicle. The ability of a test compound to inhibit this activity was determined as: Percentage inhibition=((RFU determined for sample with test compound present−RFU determined for sample with positive control inhibitor) divided by (RFU determined in the presence of vehicle−RFU determined for sample with positive control inhibitor))*100. […]

[2] = test system: JAK2 dependent pathway (GM-CSF induced IL-8) in human whole blood; test: Whole blood assay, GM-CSF stimulation, IL-8 ELISA; type: cell-based; conditions: 6 blood donors, ± SEM, read-out: pIC50 for inhibition of GM-CSF induced increase of IL-8 (converted)
Experimental: For GM-CSF stimulation, increase in interleukin-8 (IL-8) levels in plasma was measured using an IL-8 ELISA assay. Granulocyte macrophage-colony stimulating factor (GM-CSF)—induced interleukin 8 (IL-8) expression is a JAK2-mediated event.
The increase in IL-8 levels in plasma was measured using an IL-8 ELISA assay.
10 μg GM-CSF was dissolved in 100 μL H2O to obtain a 100 μg/mL stock solution. The stock solution was stored at −20° C.
A 3-fold dilution series of the test compound was prepared in DMSO (highest concentration: 10 mM).
Human blood was collected in heparinized tubes. The blood was divided in aliquots of 245 μL. […] The GM-CSF stock solution was diluted 100-fold in RPMI medium to obtain a 1 μg/mL work solution. […] The samples were incubated at 37° C. for 2 h.
The samples were centrifuged for 15 min at 1,000 g, 4° C. 100 μL of the plasma was harvested and stored at −80° C. until further use.
The Human IL-8 Chemiluminescent Immunoassay kit from R&D Systems (Cat. n°: Q8000B) was used to determine IL-8 levels.
Wash buffer was prepared by diluting 10× wash buffer in H2O. Working glo reagent was prepared by adding 1 part Glo Reagent 1 to 2 parts Glo Reagent B 15 min to 4 h before use.
100 μL assay diluent RD1-86 was added to each well. After that, 50 μL of sample (plasma) was added. […] Luminescence was measured (0.5 s/well read time).

JAK2 [3] = biological target: T1, JAK2 (Homo sapiens (Human), UniProt O60674); test: JAK2 Ki determination assay (Ulight-JAK-1 peptide); type: biochemical; conditions: Lineweaver-Burk; Ulight-JAK-1 (Tyr1023) peptide, alternative protocol
T1 sequence (O60674 849-1124): as above
Experimental: Alternatively, for the determination of Ki, different amounts of inhibitor were mixed with the enzyme and the enzymatic reaction was followed as a function of ATP concentration. […] 0.0125 mU of JAK2 (Invitrogen, PV4210) was used in the assay. The substrate was 50 nM Ulight-JAK-1 (Tyr1023) Peptide (Perkin Elmer, TRF0121). The reaction was performed in 25 mM HEPES pH 7.0, 0.01% Triton X-100, 2 mM DTT, 7.5 mM MgCl2 with varying concentrations of ATP and compound. Phosphorylated substrate was measured using an Eu-labeled anti-phosphotyrosine antibody PT66 (Perkin Elmer, AD0068). Readout was performed on the envision (Perkin Elmer) with excitation at 320 nm and emission followed at 615 nm and 665 nm.

JAK2 [4] = biological target: T1, JAK2; test: JAK2 Ki determination assay (polyGT, 33P filter plate); type: biochemical; conditions: Lineweaver-Burk; polyGT substrate, 33P readout
Excerpt: For the determination of Ki, different amounts of inhibitor were mixed with the enzyme and the enzymatic reaction was followed as a function of ATP concentration. […] 0.025 mU of JAK2 (Invitrogen, PV4210) was used in the assay.

[5] = test system: MMP13 levels in SW1353 cells; test: OSM/IL-1β signaling assay (MMP13); type: cell-based; conditions: Homo sapiens, 25 ng/mL OSM and 1 ng/mL IL-1β, 48 hours, average ± standard error of the mean
Excerpt: 5% CO2. […] The data are expressed as the average EC50 from the assays±standard error of the mean.

Chain of JAK1 (P23458 866-1154): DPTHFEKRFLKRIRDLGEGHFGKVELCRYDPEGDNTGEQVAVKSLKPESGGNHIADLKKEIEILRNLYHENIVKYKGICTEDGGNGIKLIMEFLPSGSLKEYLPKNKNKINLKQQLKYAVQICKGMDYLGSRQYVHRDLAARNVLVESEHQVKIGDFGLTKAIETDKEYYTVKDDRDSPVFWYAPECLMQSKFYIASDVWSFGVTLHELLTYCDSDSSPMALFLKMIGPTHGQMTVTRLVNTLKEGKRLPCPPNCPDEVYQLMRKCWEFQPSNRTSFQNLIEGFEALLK

`CC1(C)CN(C(=O)c2ccc(-c3cccc4nc(NC(=O)C5CC5)nn34)cc2)C1` [Compound 1, Cyclopropanecarboxylic acid{5-[4-(3,3-dimethyl-azetidine-1-carbonyl)-phenyl]-[1,2,4]triazolo[1,5-a]pyridin-2-yl}-amide] showed a Ki (JAK1) of 6.9 nM, an IC50 [1] of 67 ± 5 nM and an IC50 ([2]; additional data analysis protocol (R2 > 0.8, hill slope < 3)) of 10700 nM. For the same compound, the IC50 ([2]; human whole blood) was 13500 nM, the Ki (JAK2 [3]) was 35 nM and the Ki (JAK2 [4]) was 126 nM. The EC50 [5] was 4200 ± 2370 nM.
